Results on seven molecules are retold here after patent US20240131499A1, “BIOMIMETIC CATALYSTS FOR DIVERSE INDUSTRIAL APPLICATIONS IN CHEMICAL REACTIONS” (Wisconsin Alumni Research Foundation, priority 2022, published 2024).

Data set [1] can be described thus: Reaction kinetics analysis for lactose hydrolysis. The note with it: 100° C. Here is the method:
The glass vial was capped to prevent the solvent from evaporation, and the hydrolysis reaction was carried out at 100° C. in an oil bath (120 and 90° C. were used to measure activation energies) with 600-800 rpm stirring. […] 0.105 g (=0.1 mL) of liquid sample solution was collected at each day (every 18-26 h) for 5 days and diluted in 0.399 g (=0.4 mL) of MQ water for the reaction kinetics analysis, and the diluted sample was filtered by syringe filter (20 μm pore) and analyzed by HPLC.
(§1) The chemical concentrations of hydrolyzed lactose solutions were quantified by high performance liquid chromatography (HPLC) analysis. The hydrolyzed solutions with immobilized catalysts were centrifuged (2500 rpm, 20 min) to separate the immobilized catalyst in the aqueous phase solution. 0.105 g (0.1 mL) of the aqueous solution was diluted in 0.399 g (0.4 mL) of Milli-Q water (5 times dilution by volume) to analyze the concentrations of lactose, glucose, galactose, and HMF as one of by-products by glucose degradation. […] The temperature of the HPLC column was maintained at 50° C., and the flow rate of the mobile phase (pH 2 water, acidified by sulfuric acid) was 0.6 mL/min.

Data set [2] in a line: Active site analysis: rate constants for the active sites in lactose hydrolysis. The settings on record: 100° C.; for rate constant for the active site G1H (kG1H): homogeneous catalyst. Here is the method: Addition of Ca(OAc)2 for the investigation of catalytic active sites: The rate constants for H^+ and non-dissociated carboxylic acid from the acid catalysts were determined by combining results from separate reaction kinetics experiments. […] In the presence of different amounts of Ca(OAc)2, the predicted rates can be calculated by using a linear combination of the rate constants and the concentrations of corresponding active sites (equation in FIG. 1C). […] The kG1H value for each biomimetic catalyst was then used to calculate the turnover frequency (TOF=kG1H·[Lactose]0) for comparison of catalytic activities from the engineered biomimetic catalysts in FIG. 2A. […] This analysis accounts for the contributions from the catalytic activity of H^+ (pH effect) and the catalytic activity of the active site (G1H).

The nature of data set [3]: Solubility of the organocatalyst in water. The note with it: in water at 100° C.; read-out: solubility limit. The data set is classed as physicochemical. The source says: Immobilization of the organocatalyst on a solid support material can prevent catalyst precipitation by distributing the organocatalyst on the surface of the support. […] Catalytic reaction over the immobilized organocatalyst is analogous to the mechanism of enzymatic reactions. For instance, an organocatalyst complex on a well-defined support with controlled surface properties can act in an analogous fashion as an active site in the channel of an enzyme. Reactants bind on the G1H sites by the interaction between surface functionality on the support and the organocatalyst. Lower loading of catalyst on a support enhances the catalytic activity (FIGS. 16A and 1D) by forming a more uniform distribution of the complex on the support.

For data set [4] the following is noted: at 100° C.; extrapolated; cited from earlier work.
The nature of data set [5]: Lactose hydrolysis in the presence of Ca(OAc)2. The settings on record: 100° C. Here is the method: The glass vial was capped to prevent the solvent from evaporation, and reaction was carried out at 100° C. in an oil bath with 800 rpm stirring. 0.105 g (0.1 mL) of liquid sample solution was collected each day (every 18-26 h) for 5 days and diluted in 0.399 g (0.4 mL) of MQ water for the reaction kinetics analysis. The diluted sample was analyzed by HPLC. Experimentally measured rates at different concentrations of Ca(OAc)2 were analyzed by the kinetic model (Equations 1-4).
as §1

The mark [6] stands for this setting: homogeneous (non-immobilized) catalyst, amino acids 82-84 mM, 95% confidential intervals.

Where “and” joins values, the source holds several entries; their conditions need not be identical. Equal entries are not always repeated.

Regarding `O=S(=O)(O)O` [sulfuric acid], in data set [1] (setting [6]), the “kapp, apparent rate constant for lactose hydrolysis” value (“kapp, apparent rate constant” for short) is 0.1615 ± 0.0075 h⁻¹ and the “kd,app, apparent rate constant for glucose degradation” value (shortened to “kd,app, apparent rate constant”) is 1.08e-06 ± 5.42e-06 s⁻¹.
Take `CC(=O)O` [acetic acid]: in data set [1] (setting [6]), the “kapp, apparent rate constant” value was found to be 0.0015 ± 0.0001 h⁻¹. Further, the “rate constant for the non-dissociated acetic acid (kAA)” value in data set [2] (kapp=kH+·[H^+]+kAA·[AA]) was 1.42e-06 M⁻¹ s⁻¹.
As usually defined, the solubility is how much of the substance goes into solution per volume. In the case of `O=C(O)CCC(C(=O)O)N1C(=O)C2C(C1=O)C1(CCC(=O)CCC34CCC(CO)(O3)C3C(=O)N(C(CCC(=O)O)C(=O)O)C(=O)C34)CCC2(CO)O1` (centres unmarked) [PHAH-GA-MAL-H], in data set [3], the solubility was ~37000 µM and ~27000 µg/mL. Also, in data set [1] (37 mM homogeneous catalyst), the “kapp, apparent rate constant” value came to 0.0117 ± 0.0004 h⁻¹ and the “kd,app, apparent rate constant” value stood at 4.44e-07 ± 1.4e-07 s⁻¹. Moreover, in data set [1] (70 mM homogeneous catalyst), the “kapp, apparent rate constant” value is listed as 0.0103±0.0004 h^− and the “kd,app, apparent rate constant” value amounted to 2.78e-07 ± 1.7e-07 s⁻¹. Also, in data set [1] (setting [6]), the “kapp, apparent rate constant” value was 0.0117 ± 0.0004 h⁻¹ and the “kd,app, apparent rate constant” value worked out at 4.44e-07 ± 1.4e-07 s⁻¹. In addition, in data set [2], the “higher kG1H than GA-MAL-H” value was 74.2%, the “kG1H relative to glutamic acid” value was found to be 2.3 times and the “rate constant for the active site G1H (kG1H)” value (“rate constant … (kG1H)” for short) was determined as 0.000681 M⁻¹ s⁻¹.
For `N[C@@H](CCC(=O)O)C(=O)O` [glutamic acid, L-glutamic acid], the “pKa,G1H (α-carboxylic acid)” value in data set [4] was 2.24. Moreover, the “pKa,G2H (side-chain carboxylic acid)” value in data set [4] is recorded as 4.55. In addition, the “pKa,GNH (amine)” value in data set [4] is reported as 9.12. The “kapp, apparent rate constant” value in data set [1] (setting [6]) was found to be 0.0060 ± 0.0004 h⁻¹; in data set [5] ([Ca(OAc)2] 24 mM), 0.0011 ± 0.0001 h⁻¹; in data set [5] ([Ca(OAc)2]=0 mM), 0.0060 ± 0.0004 h⁻¹; in data set [5] ([Ca(OAc)2]=5 mM), 0.0037 ± 0.0002 h⁻¹; in data set [5] ([Ca(OAc)2]=16 mM), 0.0016 ± 0.0001 h⁻¹. Moreover, the “rate constant … (kG1H)” value in data set [2] is 0.00029567 M⁻¹ s⁻¹ and 0.000294 M⁻¹ s⁻¹. Besides, the “Rate of lactose hydrolysis” value in data set [5] ([Ca(OAc)2] 24 mM) came out at 0.0005 M/h; in data set [5] ([Ca(OAc)2]=0 mM), 0.0026 M/h; in data set [5] ([Ca(OAc)2]=5 mM), 0.0016 M/h; in data set [5] ([Ca(OAc)2]=16 mM), 0.0007 M/h.
For `[H+]` [H^+], the “rate constant for H^+ (kH+)” value in data set [2] (kapp=kH+·[H^+]) was 0.0002639 M⁻¹ s⁻¹.
`O=C(O)CCC(C(=O)O)N1C(=O)CCC1=O` (centres unmarked) [GA-MAL-H]: the “suppression of kd,app/kapp compared to glutamic acid” value in data set [1] is on record as 55.2%. In addition, in data set [1] (setting [6]), the “kapp, apparent rate constant” value is 0.0077 ± 0.0002 h⁻¹ and the “kd,app, apparent rate constant” value was determined as 6.11e-07 ± 2.2e-07 s⁻¹. For the same molecule, in data set [2], the “higher kG1H than kG1H for glutamic acid” value was 31.9% and the “rate constant … (kG1H)” value was determined as 0.000389 M⁻¹ s⁻¹.
For the molecule `N[C@@H](Cc1ccc(O)cc1)C(=O)O` [tyrosine, L-tyrosine], in data set [1] (setting [6]), the “kapp, apparent rate constant” value turned out to be 0.0004 ± 0.0001 h⁻¹ and the “kd,app, apparent rate constant” value came to 1.4e-07 ± 3.22e-06 s⁻¹.
